Key:
[1] = tested on: maximal electroshock seizures; assay: Maximal electroshock seizure (MES) test, mouse, i.p.; format: in vivo, mouse (male Carworth Farms #1); conditions: for ED50: Mus musculus, ip; for ED50 / P.I., TD50/ED50, MES: mice, Table 5; for ASP Group Classification, MES Test: mouse, 30, 100 and 300 mg/kg
Description: The hydrazones, hydrazines and semicarbazones derived from pyridyl ketones and the resulting orally effective anticonvulsant compositions of this invention are useful in the treatment of convulsive disorders. […] A series of hydrazones, hydrazines and semicarbazones derived from pyridyl ketones of this invention has been evaluated for anticonvulsant activity by the intraperitoneal (i.p.) and by the oral (p.o.) route using two standard seizure models in the mouse and in the rat, the maximal electroshock seizure (MES) test and the subcutaneous pentylenetetrazole (Metrazole) seizure threshold (scMet) test. […] In addition, the compounds are evaluated in a new model, the threshold tonic extension (TTE) model. […] Thus active compounds that may be missed in the MES and […] the mouse, i.p., can be detected in the TTE test. Based on the screening results, the compounds are placed in one of three categories. […] Class II compounds show anticonvulsant activity at doses greater than 100 mg/kg or show activity at 100 mg/kg which is not reinforced by similar activity at 300 mg/kg. […] The Class I compounds are those which are most promising as anticonvulsants. […] In mice. i.p.: All compounds are emulsified in 0.5% methylcellulose. The solvent has been tested for anticonvulsant and toxic effects and found to introduce no significant bias into the testing of anticonvulsant activity. The compounds are administered intraperitoneally in a volume of 0.01 ml/gm to male Carworth Farms #1 mice weighing about 20 gm. All compounds are tested at least at three dose levels (30, 100 and 300 mg/kg) at 30 minutes and 4 hours after their administration. The Maximal Electroshock Seizure Test (MES): Maximal electroshock seizures are elicited with a 60 Hz alternating current of 50 mA intensity in mice and about 150 mA intensity in rats (5-7 times that necessary to elicit minimal electroshock seizures), delivered for 0.2 sec via corneal electrodes. A drop of 0.9% saline is instilled in the eye prior to application of the electrodes in order to […]. Abolition of the hind limb tonic extension component of the seizure is defined as protection and results are expressed as number of animals protected/number of animals tested. Anticonvulsant Quantification in Mice, i.p.: The ED50 values are determined in the MES, scMet and rotorod ataxia test.

[2] = tested on: maximal electroshock seizures; assay: Maximal electroshock seizure (MES) test, rat, p.o.; format: in vivo, rat (Sprague-Dawley); conditions: for responders at 30 mg/kg / ED50: po; for responders at 30 mg/kg: several time points over a 4 hour period, read-out: Percent Protection at 30 mg/kg, in the MES test; for protection at 30 mg/kg, MES Test: Table 7
Description: The hydrazones, hydrazines and semicarbazones derived from pyridyl ketones and the resulting orally effective anticonvulsant compositions of this invention are useful in the treatment of convulsive disorders. […] A series of hydrazones, hydrazines and semicarbazones derived from pyridyl ketones of this invention has been evaluated for anticonvulsant activity by the intraperitoneal (i.p.) and by the oral (p.o.) route using two standard seizure models in the mouse and in the rat, the maximal electroshock seizure (MES) test and the subcutaneous pentylenetetrazole (Metrazole) seizure threshold (scMet) test. […] In addition, the compounds are evaluated in a new model, the threshold tonic extension (TTE) model. […] Thus active compounds that may be missed in the MES and […] the mouse, i.p., can be detected in the TTE test. The Maximal Electroshock Seizure Test (MES): Maximal electroshock seizures are elicited with a 60 Hz alternating current of 50 mA intensity in mice and about 150 mA intensity in rats (5-7 times that necessary to elicit minimal electroshock seizures), delivered for 0.2 sec via corneal electrodes. A drop of 0.9% saline is instilled in the eye prior to application of the electrodes in order to […]. Abolition of the hind limb tonic extension component of the seizure is defined as protection and results are expressed as number of animals protected/number of animals tested. […] This species will be the subject of the complete anticonvulsant quantification test evaluation as described above, but after oral (gavage) administration of the candidate compound.

[3] = tested on: subcutaneous pentylenetetrazole (Metrazole) seizure; assay: Subcutaneous pentylenetetrazole (Metrazole) seizure threshold test (scMet), mouse, i.p.; format: in vivo, mouse (male Carworth Farms #1); conditions: ip, mice, Table 5
Description: (§1) The hydrazones, hydrazines and semicarbazones derived from pyridyl ketones and the resulting orally effective anticonvulsant compositions of this invention are useful in the treatment of convulsive disorders. […] A series of hydrazones, hydrazines and semicarbazones derived from pyridyl ketones of this invention has been evaluated for anticonvulsant activity by the intraperitoneal (i.p.) and by the oral (p.o.) route using two standard seizure models in the mouse and in the rat, the maximal electroshock seizure (MES) test and the subcutaneous pentylenetetrazole (Metrazole) seizure threshold (scMet) test. […] In addition, the compounds are evaluated in a new model, the threshold tonic extension (TTE) model. […] Thus active compounds that may be missed in the MES and scMet tests in the mouse, i.p., can be detected in the TTE test.
In mice. i.p.: All compounds are emulsified in 0.5% methylcellulose. The solvent has been tested for anticonvulsant and toxic effects and found to introduce no significant bias into the testing of anticonvulsant activity. The compounds are administered intraperitoneally in a volume of 0.01 ml/gm to male Carworth Farms #1 mice weighing about 20 gm. All compounds are tested at least at three dose levels (30, 100 and 300 mg/kg) at 30 minutes and 4 hours after their administration.
(§2) The Subcutaneous Pentylenetetrazol (Metrazole) Seizure Treshold Test (scMET): A 0.5 % solution of 85 mg/kg of pentylenetetrazole is administered subcutaneously in the posterior midline 30 minutes or 4 hours after drug administration to the animal. Failure to observe even a threshold seizure (a single episode of clonic spasms of at least 5 sec duration) is defined as protection and the results are expressed as number of animals protected/number of animals tested.
(§3) Anticonvulsant Quantification in Mice, i.p.: The ED50 values are determined in the MES, scMet and rotorod ataxia test.

[4] = in vivo; design: species or system mouse (male Carworth Farms #1); conditions: mouse, ip
Description: (§4) Neurotoxicity is determined by the rotorod ataxia test in mice and by the positional sense test and gait and stance test in the rat.
Neurotoxicity is evaluated in mice by the rotorod ataxia test. The animal is placed on a wooden rod of 1 and 1/8" diameter rotating at 6 rpm. Normal mice can remain on a rod rotating at this speed indefinitely.
as §3

[5] = tested on: subcutaneous pentylenetetrazole (Metrazole) seizure; assay: Subcutaneous pentylenetetrazole (Metrazole) seizure threshold test (scMet), rat, p.o.; format: in vivo, rat (Sprague-Dawley); conditions: po, rats, Table 6
Description: as §1, §2
(§5) This species will be the subject of the complete anticonvulsant quantification test evaluation as described above, but after oral (gavage) administration of the candidate compound.

[6] = in vivo; design: species or system rat (Sprague-Dawley); conditions: rat, po
Description: as §4, §5
Neurological deficit in rats is examined by the positional sense test and gait and stance test. […] Inability to do so rapidly indicates a neurologic deficit. In the gait and stance test, a neurologic deficit is indicated by a circular or a zigzag gait, ataxia, abnormal spread of the legs, abnormal body posture, tremor, hyperactivity, lack of exploratory behavior, somnolence, stupor, or catalepsy.

[7] = tested on: TTE seizure; assay: Threshold tonic extension (TTE) test, mouse, i.p.; format: in vivo; conditions: mouse, 100 mg/kg
Description: as §1
The Threshold Tonic Extension (TTE) Test: The TTE test (Piredda et al., 1985) is a clinically nonselective, electroconvulsive seizure model that identifies compounds that raise seizure threshold as well as those that prevent seizure spread. […] The test is similar to the MES screen but uses a lower level of electrical current. The lower current makes the TTE test more sensitive but less discriminate than the MES screen. This ability makes the model attractive because it allows us to identify compounds that may be missed by our standard identification screen.
Twenty mice are pretreated intraperitoneally with 100 mg/kg of the test substance. At several time intervals (1/4, 1/2, 1, 2, and 4 hours) post treatment with the test drug, four mice at each time point are challenged with 12.5 mA of electrical current for 0.2 seconds via corneal electrodes. This produces a TTE seizure in the animals (Woodbury and Davenport, 1952).
For each time interval results are expressed as a ratio of the number of animals protected over the number tested. […] The positives may represent compounds acting by novel mechanisms.

CC(=NNc1ccc(Cl)c(Cl)c1)c1cccnc1 [Compound 4, Methyl 3-pyridyl ketone 3,4-dichlorophenylhydrazone]
ED50 [1]: 69.8 mg/kg
P.I., TD50/ED50, MES [1]: > 7.17
ASP Group Classification, MES Test [1]: I (They demonstrate anticonvulsant activity in either the MES test or the scMet test, or both at doses of 100 mg/kg or 30 mg/kg without signs of neurological deficit and thus have an estimated protective index of greater than 1)
responders at 30 mg/kg ([2]; rat): 25 to 100%
ED50 [3]: > 500 mg/kg
TD50 [4]: > 500 mg/kg

CC(=NNc1ccc(Cl)cc1)c1cccnc1 [Compound 5, Methyl 3-pyridyl ketone 4-chlorophenylhydrazone]
ASP Group Classification, MES Test [1]: I (They demonstrate anticonvulsant activity in either the MES test or the scMet test, or both at doses of 100 mg/kg or 30 mg/kg without signs of neurological deficit and thus have an estimated protective index of greater than 1)
ED50 ([2]; Rattus norvegicus, rats, Table 6, read-out: ED50, MES): 7.79 mg/kg
responders at 30 mg/kg ([2]; rat): 50 to 100%
ED50 ([2]; rat, Table 7, read-out: Anticonvulsant Efficacy (ED50, mg/kg) in the MES Test): 7.8 mg/kg
P.I., TD50/ED50, MES ([2]; rats, Table 6): > 64.12
ED50 [5]: > 250 mg/kg
TD50 [6]: > 500 mg/kg

CCC(=NNc1ccc(Cl)c(Cl)c1)c1ccncc1 [Compound 7, Ethyl 4-pyridyl ketone 3,4-dichlorophenylhydrazone]
ASP Group Classification, MES Test [1]: III (Those failing to demonstrate anticonvulsant activity at doses up to 300 mg/kg are considered inactive)
ASP Group Classification, TTE Test [7]: I (They demonstrate anticonvulsant activity in either the MES test or the scMet test, or both at doses of 100 mg/kg or 30 mg/kg without signs of neurological deficit and thus have an estimated protective index of greater than 1)
TTE Test (Percent Protection) [7]: 25%

Clc1ccc(NN=C(c2ccccc2)c2ccncc2)cc1Cl [Compound 9, Phenyl 4-pyridyl ketone 3,4-dichlorophenylhydrazone]
ASP Group Classification, MES Test [1]: III (Those failing to demonstrate anticonvulsant activity at doses up to 300 mg/kg are considered inactive)
ASP Group Classification, TTE Test [7]: I (They demonstrate anticonvulsant activity in either the MES test or the scMet test, or both at doses of 100 mg/kg or 30 mg/kg without signs of neurological deficit and thus have an estimated protective index of greater than 1)
TTE Test (Percent Protection) [7]: 25%

Clc1cccc(NN=C(c2ccccc2)c2ccncc2)c1 [Compound 11, Phenyl 4-pyridyl ketone 3-chlorophenylhydrazone]
ASP Group Classification, MES Test [1]: III (Those failing to demonstrate anticonvulsant activity at doses up to 300 mg/kg are considered inactive)
ASP Group Classification, TTE Test [7]: I (They demonstrate anticonvulsant activity in either the MES test or the scMet test, or both at doses of 100 mg/kg or 30 mg/kg without signs of neurological deficit and thus have an estimated protective index of greater than 1)

NC(=O)NN=C(c1ccccc1)c1ccncc1 [Compound 15, Phenyl 4-pyridyl ketone semicarbazone]
ED50 [1]: 57.5 mg/kg
P.I., TD50/ED50, MES [1]: 2.79
ASP Group Classification, MES Test [1]: I (They demonstrate anticonvulsant activity in either the MES test or the scMet test, or both at doses of 100 mg/kg or 30 mg/kg without signs of neurological deficit and thus have an estimated protective index of greater than 1)
responders at 30 mg/kg ([2]; rat): 50 to 100%
protection at 30 mg/kg, MES Test ([2]; rat): 50-100%
ED50 [3]: > 300 mg/kg
TD50 [4]: 160 mg/kg

NC(=O)NN=C(c1ccccc1)c1cccnc1 [Compound 16, Phenyl 3-pyridyl ketone semicarbazone]
ED50 [1]: 21.8 mg/kg
P.I., TD50/ED50, MES [1]: 3.87
ASP Group Classification, MES Test [1]: I (They demonstrate anticonvulsant activity in either the MES test or the scMet test, or both at doses of 100 mg/kg or 30 mg/kg without signs of neurological deficit and thus have an estimated protective index of greater than 1)
responders at 30 mg/kg ([2]; rat): 75 to 100%
protection at 30 mg/kg, MES Test ([2]; rat): 75-100%
TD50 [4]: 84.6 mg/kg
